Results on 2 molecules are retold here after US20250319292A1, “MICRONEEDLES AND METHODS FOR TREATING THE SKIN” (THE BRIGHAM AND WOMEN'S HOSPITAL, INC., priority 2021, published 2025).

Series [1] concerns THP-1 cells. Kind of series: Cytotoxicity studies of digestion media (TCEP). The series is classed as cell-based. The settings on record: TCEP 0.1 mM to 100 mM, 10 minutes. Here is the method: Human monocyte THP-1 cells (ATTC) were maintained in RPMI 1640 supplemented with 10% FBS, 2 mM L-glutamine, 25 mM HEPES, 100 μg/mL Normocin™ (InvivoGen) and 100 U/mL penicillin and 100 μg/mL streptomycin. Cell lines were maintained in a humidified incubator at 37° C., 5% CO2.
THP-1 cells were incubated with different concentrations of digestion media (TCEP solution in supplemented media), ranging from 0.1 mM to 100 mM, for 10 minutes. Thereafter, digestion media was removed, and cells were stained using the LIVE/DEAD™ fixable Violet Dead Cell Stain Kit (Thermo Fisher Scientific, USA) following the manufacturer's guidelines. Dead cells were analyzed by flow cytometry using a BD LSRFortessa™ flow cytometer.

For series [2], the system named is Tregs. Briefly: CCL22-dependent trans-well migration assay. The settings on record: 0, 10 and 100 ng/ml, 3 hours, CD3+ T cells. It counts as cell-based, C57BL/6 mice. Here is the method: Recruitment of Tregs as a function of CCL22 was assessed in a 24-well plate containing a 5 μm-pore polycarbonate Transwell® filter system (Costar Transwell® permeable support #3421). MNs loaded with incremental amounts of CCL22 ([…] and 100 ng) or equivalent dose of soluble CCL22 were added in the receiver wells and incubated at 37° C. for 1 hour. 5×10^5 CD3^+ T cells were magnetically isolated from C57BL/6 mice using mouse T cell isolation kit (EasySep™, #19851) and resuspended in full culture media and added to the top wells. Cells were then incubated at 37° C. and 5% CO2 for 3 hours. Cells in the receiver well were then harvested and stained with Fixed viability dye, anti-CD3, CD4, CD25, and Foxp3 antibodies and analyzed by flow cytometry.
Next, the biological activity of chemokines when loaded in the MNs was examined. Specifically, the ability of CCL22 to mediate Tregs recruitment when delivered using the MN platform through a trans-well migration assay was studied. Briefly, ranging concentrations of CCL22, either MN-doped or soluble, were incubated with CD3^+ T cells, and the number of migrated Tregs was analyzed after 3 hours of incubation by flow cytometry. […] This can stem from the maintenance of a higher gradient of CCL22 when released from the MNs compared to soluble CCL22 (FIG. 3C).

Turning to `O=C(O)CCP(CCC(=O)O)CCC(=O)O` [TCEP, tris (2-carboxyethyl) phosphine], the cell viability entry in series [1] was “highly biocompatible and did not affect cell viability”.

B1: soluble CCL22: C-C motif chemokine 22 added in solution, from PeproTech (protein, UniProt O00626 25-93, looked up)
C-C motif chemokine 22: GPYGANMEDSVCCRDYVRYRLPLRVVKHFYWTSDSCPRPGVVLLTFRDKEICADPRVPWVKMILNKLSQ
Take B1: the “Tregs migration as a function of CCL22 concentration” value in series [2] is “dose-dependent increase of Tregs migration”.
